# In patent US9695127B2, “Compounds for treating HIV and methods for using the compounds” (University of Pittsburgh—Of the Commonwealth System of …, priority 2012, dated 2017):
# Columns and labels:
# wild-type HIV-1 NL4-3 = test: HIV-1 replication in U87MG cells (p24 ELISA); assay type: cell-based; conditions: for REPLICATION @ 3 μM % Inhibition vs. DMSO control: U87MG cells; for inhibition at 3 µM: Human immunodeficiency virus 1, NL43, U-87 MG, 96 h, read-out: REPLICATION @ 3 μM % Inhibition vs. DMSO control
# Excerpt: In particular disclosed embodiments, the compound may be used to block Nef-dependent HIV replication and infectivity. FIG. 7 illustrates the chemical structures of the compounds identified by the Nef:Hck HTS campaign and subsequently shown to block Nef-dependent enhancement of HIV-1 replication in two different cell lines are shown, along with the IC50 values for each compound against Hck alone vs. the Nef:Hck complex. FIG. 8 illustrates results concerning HIV replication. […] Viral output for the DMSO-treated control cultures was consistently greater than 100-fold over the HIV input, typically ranging from 9,000-12,000 p24 equivalents/ml. Virus replication was assessed by p24 ELISA after 4 days (U87MG) or 9 days (CEM-T4). Data are expressed as the mean percent inhibition as compared to control cultures incubated with the carrier solvent (DMSO)±S.E.M. (n=4). Results of replication and cytotoxicity experiments with all certain hit compounds from the primary screen are shown in FIG. 3 and FIG. 4. FIG. 9 concerns infectivity assays. Compounds (3 μM) were added to cultures of the reporter cell line TZM-b1 followed by infection with either wild-type or Nef-defective (ΔNef) HIV NL4-3 in 96-well plates. After 48 hours, relative virus infectivity was assessed as luciferase production in infected cells. Results are plotted as the mean percent of HIV-1 infectivity observed in control cells incubated with the carrier solvent DMSO±S.E.M. (n=3). In the absence of Nef, infectivity is reduced by about 50% (ΔNef; dashed line shown for reference).
# (§1) HIV assays: Viral stocks were prepared by transfection of 293T cells (ATCC) with wild-type and Nef-defective (ΔNef) proviral genomes (NL4—3 strain) and amplified in the T-cell line, MT2 (NIH AIDS Research and Reference Reagent Program). Viral replication was assessed in the U87MG astroglioma cell line engineered to express the HIV-1 co-receptors CD4 and CXCR4 or in the T-lymphoblast cell line, CEM-T4. Both the U87 MG and CEM-T4 cell lines support HIV-1 replication in a Nef-dependent manner, and were obtained from the NM AIDS Research and Reference Reagent Program. Compounds were solubilized in DMSO, and added to the cell culture medium 1 h prior to infection with HIV. Viral replication was monitored for either 4 days (U87MG) or 9 days (CEM-T4) by measuring p24 Gag protein levels in the culture supernatant using standard ELISA-based techniques. HIV-1 infectivity was measured using the reporter cell line, TZM-b1 (NM AIDS Research and Reference Reagent Program). Cells were grown in 96-well plates (2.5×10^4) 8 h prior to virus infection to permit adherence. Compounds were pre-incubated with wild-type HIV-1 for 4 h prior to addition to the cells in a final volume of 200 μl. After 48 h at 37° C., the cells were washed with PBS and lysed in luciferase lysis buffer (Promega) by rocking for 15 min Lysates (40 μl) were transferred to white 96-well plates and 50 μl luciferase reagent (Promega) was injected into each well. Readings were recorded with a delay time of 2 sec and an integration period of 10 sec.
# [1] = Preliminary pharmacokinetics in C3H mice; conditions: for T1/2: i.v., 2 mg/kg; for % F (oral bioavailability): p.o., 10 mg/kg
# Experimental: Compounds were administered to male C3H mice via the i.v. and p.o. routes, and plasma concentrations were assessed by LC-MS/MS at the time points indicated. Plasma levels were determined for three mice at each time point and are shown as the mean±S.D.
# HIV-1 NL4-3 = test: HIV-1 infectivity in TZM-b1 reporter cells (luciferase); assay type: cell-based; conditions: Human immunodeficiency virus 1, NL43, TZM-b1, 48 h, read-out: INFECTIVITY @ 3 μM % Inhibition vs. DMSO control
# Experimental: Compounds (1 μM) shown in FIG. 7 were added to cultures of U87MG and CEM-T4 cells in 96-well plates, followed by infection with wild-type HIV-1 NL4-3 (50 pg p24 equivalents/ml) 1 hour later. […] Virus replication was assessed by p24 ELISA after 4 days (U87MG) or 9 days (CEM-T4). Data are expressed as the mean percent inhibition as compared to control cultures incubated with the carrier solvent (DMSO)±S.E.M. (n=4). […] FIG. 9 concerns infectivity assays. Compounds (3 μM) were added to cultures of the reporter cell line TZM-b1 followed by infection with either wild-type or Nef-defective (ΔNef) HIV NL4-3 in 96-well plates. After 48 hours, relative virus infectivity was assessed as luciferase production in infected cells. […]
# as §1, with “Both the U87 MG and CEM-T4 cell lines support HIV-1 replication in a Nef-dependent manner, and were obtained from the NM AIDS Research and Reference Reagent Program.” left out
# cell-surface CD4 = test: Nef-induced CD4 downregulation in CEM-GFP cells (flow cytometry); assay type: cell-based; conditions: CEM-GFP cells infected with HIV-1 WT NL43, 8 days
# Experimental: (§2) CEM-GFP cells were treated for 4 hrs with compounds or DMSO (control), then infected with 100 pg/ml HIV-1 WT NL43 or 500 pg/ml ΔNef-NL43.
# Percentages on the flow diagrams (FIGS. 33A-33E) show percent of cells positive for CD4.
# cell-surface MHC-I = test: Nef-induced MHC-I downregulation in CEM-GFP cells (flow cytometry); assay type: cell-based; conditions: CEM-GFP cells infected with HIV-1 WT NL43, 8 days
# Experimental: as §2
SMILES,REPLICATION @ 3 μM % Inhibition vs. DMSO control (wild-type HIV-1 NL4-3),T1/2 [1] [h],% F (oral bioavailability) [1] [%],inhibition at 3 µM (HIV-1 NL4-3) [%],Reversal of Nef-mediated CD4 downregulation (cell-surface CD4),Reversal of Nef-mediated MHC-I downregulation (cell-surface MHC-I),inhibition at 3 µM (wild-type HIV-1 NL4-3) [%]
NC(=S)n1nc(-c2ccc([N+](=O)[O-])cc2)c(CCc2cccc(Cl)c2)c1O [JZ-1-96-2-1],Toxic,1.53,85,59.5,,,
NC(=S)n1nc(-c2ccc([N+](=O)[O-])cc2)c(Cc2cccc(Cl)c2)c1O [JZ-1-97-2-1],,1.66,57,56.6,reverse Nef-mediated CD4 downregulation to the same extent observed in cells infected with Nef-defective HIV-1,reverse Nef-mediated MHC-I downregulation to the same extent observed in cells infected with Nef-defective HIV-1,51.6
NC(=S)n1nc(-c2ccc(F)cc2)c(/N=N/c2cncc(Cl)c2)c1O [JZ-1-107],,,,19.7,,,0
Oc1[nH]nc(-c2ccc(F)cc2)c1/N=N/c1cccnc1 [JZ-1-110-1],,,,3.3,,,0
Oc1[nH]nc(-c2ccc(F)cc2)c1/N=N/c1cncc(Cl)c1 [JZ-1-110-2],,,,0,,,19.3
COc1cccc(CCc2c(-c3ccc([N+](=O)[O-])cc3)nn(C(=N)N)c2O)c1 [JZ-1-135-1],,,,9.5,,,54.1
N=C(N)n1nc(-c2ccccn2)c(CCc2cccc(Cl)c2)c1O [JZ-1-135-2],Toxic,,,0,,,
Oc1c(Cc2ccc(F)cc2)c(-c2ccc(F)cc2)nn1-c1ccccn1 [JZ-1-178],,,,34.7,,,0
NC(=S)n1nc(-c2ccc([N+](=O)[O-])cc2)c(/N=N/c2ccc(Cl)cc2)c1O [KM-1-46],,,,37.2,,,43.6
